Source: EP1976513B1 (priority 2006, dated 2007)
Read-outs that look alike come from different tables or passages of the source.

Key:
[1] = target: T1, human dopamine reuptake transporter (Homo sapiens, UniProt Q01959); experiment: cell-based
T1 construct: expressed in transfected cells; host or cells: CHO-K1 or HEK293

[2] = target: human serotonin reuptake transporter (Homo sapiens, UniProt P31645); experiment: cell-based
[3] = recombinant human dopamine transporter (DAT), read-out: Human IC50 (nM) hDAT
[4] = recombinant human serotonin transporter (SERT), read-out: Human IC50 (nM) hSERT

human serotonin reuptake transporter, sequence (P31645 whole entry): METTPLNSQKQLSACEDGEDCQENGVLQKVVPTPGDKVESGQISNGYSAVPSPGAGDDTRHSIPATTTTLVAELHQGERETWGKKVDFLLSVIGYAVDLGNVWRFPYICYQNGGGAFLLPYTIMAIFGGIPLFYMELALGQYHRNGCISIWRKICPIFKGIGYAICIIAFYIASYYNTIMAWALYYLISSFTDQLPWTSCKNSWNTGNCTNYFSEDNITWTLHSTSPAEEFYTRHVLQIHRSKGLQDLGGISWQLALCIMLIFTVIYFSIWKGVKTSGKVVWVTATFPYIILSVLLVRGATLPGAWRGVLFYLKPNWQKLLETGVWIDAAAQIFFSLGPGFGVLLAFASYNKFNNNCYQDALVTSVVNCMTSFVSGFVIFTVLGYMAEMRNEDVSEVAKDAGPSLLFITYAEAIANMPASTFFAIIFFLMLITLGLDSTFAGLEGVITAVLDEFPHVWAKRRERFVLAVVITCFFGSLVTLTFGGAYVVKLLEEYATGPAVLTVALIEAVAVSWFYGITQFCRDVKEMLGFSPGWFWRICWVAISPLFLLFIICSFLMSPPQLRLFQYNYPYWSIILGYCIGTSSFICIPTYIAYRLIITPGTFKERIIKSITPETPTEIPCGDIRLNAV
T1 sequence (Q01959 whole entry): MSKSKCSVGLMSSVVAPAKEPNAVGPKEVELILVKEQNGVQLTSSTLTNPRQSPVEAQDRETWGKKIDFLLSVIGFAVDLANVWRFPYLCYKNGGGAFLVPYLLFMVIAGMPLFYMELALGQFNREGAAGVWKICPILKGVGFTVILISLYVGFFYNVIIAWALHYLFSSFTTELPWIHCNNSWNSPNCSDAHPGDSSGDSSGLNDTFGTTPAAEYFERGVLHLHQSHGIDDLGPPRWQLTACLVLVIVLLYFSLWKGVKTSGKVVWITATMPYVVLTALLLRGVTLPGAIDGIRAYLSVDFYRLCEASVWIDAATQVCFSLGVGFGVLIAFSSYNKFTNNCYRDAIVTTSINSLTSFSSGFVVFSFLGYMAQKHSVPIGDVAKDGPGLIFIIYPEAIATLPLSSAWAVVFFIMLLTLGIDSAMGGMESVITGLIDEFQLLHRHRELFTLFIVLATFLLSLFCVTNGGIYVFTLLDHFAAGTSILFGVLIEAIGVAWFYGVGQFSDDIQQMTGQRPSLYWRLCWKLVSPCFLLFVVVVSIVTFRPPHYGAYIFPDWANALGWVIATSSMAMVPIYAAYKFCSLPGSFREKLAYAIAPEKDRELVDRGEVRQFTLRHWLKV

| Structure (SMILES) | IC50 [1, 3] [nM] | IC50 [2, 4] [nM] | further results |
| --- | --- | --- | --- |
| CN(C)C[C@]1(c2ccc(Cl)c(Cl)c2)CCC[C@H](O)C1 (relative stereo) [Compound 203, cis-3-(3,4-dichlorophenyl)-3-((dimethylamino)methyl)cyclohexanol] | 1.4 |  |  |
| CC(N)C1(c2ccc(OC(F)(F)F)cc2)CCCCC1 (single isomer, unassigned) [19 E1, 1-(1-(4-(trifluoromethoxy)phenyl)cyclohexyl)ethanamine] |  | 1510 |  |
| CC(N)C1(c2ccc(OC(F)(F)F)cc2)CCCCC1 (single isomer, unassigned) [19 E2, 1-(1-(4-(trifluoromethoxy)phenyl)cyclohexyl)ethanamine] |  | 398 |  |
| CC(C)CC(N)C1(c2ccc(Cl)cc2)CCCCC1 (single isomer, unassigned) [21 E1, 1-(1-(4-chlorophenyl)cyclohexyl)-3-methylbutan-1-amine] |  |  | IC50 ([2]; Human IC50 (nM) hSERT): 9660 nM |
| CC(C)CC(N)C1(c2ccc(Cl)cc2)CCCCC1 (single isomer, unassigned) [21 E2, 1-(1-(4-chlorophenyl)cyclohexyl)-3-methylbutan-1-amine] |  |  | IC50 ([2]; Human IC50 (nM) hSERT): 1240 nM |
| CC(N)C1(c2ccc(-c3ccco3)cc2)CCCCC1 (single isomer, unassigned) [22 E1, 1-(1-(4-(furan-2-yl)phenyl)cyclohexyl)ethanamine] |  | 63 |  |
| CC(N)C1(c2ccc(-c3ccco3)cc2)CCCCC1 (single isomer, unassigned) [22 E2, 1-(1-(4-(furan-2-yl)phenyl)cyclohexyl)ethanamine] |  | 101 |  |
| CNC(C)C1(c2cccc3ccccc23)CCCCC1 (single isomer, unassigned) [59 E1, N-methyl-1-(1-(naphthalen-1-yl)cyclohexyl)ethanamine] | 1750 |  |  |
| CNC(C)C1(c2cccc3ccccc23)CCCCC1 (single isomer, unassigned) [59 E2, N-methyl-1-(1-(naphthalen-1-yl)cyclohexyl)ethanamine] | 3870 |  |  |
| CCC(NC)C1(c2ccc(Cl)c(Cl)c2)CCCCC1 (single isomer, unassigned) [62 E1, 1-(1-(3,4-dichlorophenyl)cyclohexyl)-N-methylpropan-1-amine] | 39 |  |  |
| CCC(NC)C1(c2ccc(Cl)c(Cl)c2)CCCCC1 (single isomer, unassigned) [62 E2, 1-(1-(3,4-dichlorophenyl)cyclohexyl)-N-methylpropan-1-amine] | 4 |  |  |
| CNCC1(c2ccc(Cl)cc2)CCCCC1O (single isomer, unassigned) [136 E1, trans-2-(4-chlorophenyl)-2-((methylamino)methyl)-cyclohexanol] |  | > 10000 |  |
| CNCC1(c2ccc(Cl)cc2)CCCCC1O (single isomer, unassigned) [136 E2, trans-2-(4-chlorophenyl)-2-((methylamino)methyl)-cyclohexanol] |  | > 10000 |  |
| CNCC1(c2ccc(OC)cc2)CCCCC1O (single isomer, unassigned) [140 E2, trans-2-(4-Methoxyphenyl)-2-((methylamino)methyl)cyclohexanol] |  | > 10000 |  |
| CNCC1(c2ccc(OC(F)(F)F)cc2)CCCCC1O (single isomer, unassigned) [146 E1, trans-2-((Methylamino)methyl)-2-(4-(trifluoromethoxy)phenyl) cyclohexanol] | > 10000 |  |  |
| CNCC1(c2ccc(OC(F)(F)F)cc2)CCCCC1O (single isomer, unassigned) [146 E2, trans-2-((Methylamino)methyl)-2-(4-(trifluoromethoxy)phenyl) cyclohexanol] | > 10000 |  |  |
| COc1ccc(C2(CN(C)C)CCCCC2O)cc1 (single isomer, unassigned) [155 E1, Cis-2-((dimethylamino)methyl)-2-(4-methoxyphenyl)cyclohexanol] | > 10000 |  |  |
| COc1ccc(C2(CN(C)C)CCCCC2O)cc1 (single isomer, unassigned) [155 E2, Cis-2-((dimethylamino)methyl)-2-(4-methoxyphenyl)cyclohexanol] | > 10000 |  |  |
| CCNCC1(c2ccc(Cl)c(Cl)c2)CCCCC1CO (single isomer, unassigned) [169 E1, (2-(3,4-dichlorophenyl)-2-((ethylamino)methyl)-cyclohexyl)methanol] |  | 1100 |  |
| CCNCC1(c2ccc(Cl)c(Cl)c2)CCCCC1CO (single isomer, unassigned) [169 E2, (2-(3,4-dichlorophenyl)-2-((ethylamino)methyl)-cyclohexyl)methanol] |  | 332 |  |
| NCC1(c2ccc(Cl)c(Cl)c2)CCCC(O)C1 (single isomer, unassigned) [184 E1, Cis-3-(aminomethyl)-3-(3,4-dichlorophenyl)cyclohexanol] |  | > 10000 |  |
| NCC1(c2ccc(Cl)c(Cl)c2)CCCC(O)C1 (single isomer, unassigned) [184 E2, Cis-3-(aminomethyl)-3-(3,4-dichlorophenyl)cyclohexanol] |  | > 10000 |  |
| NCC1(c2ccc(Cl)c(Cl)c2)CCCC(O)C1 (single isomer, unassigned) [185 E1, Trans-3-(aminomethyl)-3-(3,4-dichlorophenyl)cyclohexanol] |  | > 10000 |  |
| NCC1(c2ccc(Cl)c(Cl)c2)CCCC(O)C1 (single isomer, unassigned) [185 E2, Trans-3-(aminomethyl)-3-(3,4-dichlorophenyl)cyclohexanol] |  | > 10000 |  |

| Structure (SMILES) | IC50 [1, 3] [nM] | IC50 [2, 4] [nM] | further results |
| --- | --- | --- | --- |
| CNCC1(c2ccc(Cl)c(Cl)c2)CCCC(F)(F)C1 (single isomer, unassigned) [205 E1, 1-(1-(3,4-dichlorophenyl)-3,3-difluorocyclohexyl)-N-methylmethanamine] |  |  | IC50 ([2]; Human IC50 (nM) hSERT): 4210 nM |
| CNCC1(c2ccc(Cl)c(Cl)c2)CCCC(F)(F)C1 (single isomer, unassigned) [205 E2, 1-(1-(3,4-dichlorophenyl)-3,3-difluorocyclohexyl)-N-methylmethanamine] |  |  | IC50 ([2]; Human IC50 (nM) hSERT): 1710 nM |
| CN(C)CC1(c2ccc(Cl)c(Cl)c2)CCCC(F)(F)C1 (single isomer, unassigned) [206 E1, 1-(1-(3,4-dichlorophenyl)-3,3-difluorocyclohexyl)-N,N-dimethylmethanamine] | 59 |  |  |
| CN(C)CC1(c2ccc(Cl)c(Cl)c2)CCCC(F)(F)C1 (single isomer, unassigned) [206 E2, 1-(1-(3,4-dichlorophenyl)-3,3-difluorocyclohexyl)-N,N-dimethylmethanamine] | < 1 |  |  |
| CC(N)C1(c2ccc(OC(F)(F)F)cc2)CCCCC1 (centres unmarked) [Compound 19, 1-(1-(4-(trifluoromethoxy)phenyl)cyclohexyl)ethanamine] |  | 107 |  |
| CC(C)CC(N)C1(c2ccc(Cl)cc2)CCCCC1 (centres unmarked) [Compound 21, 1-(1-(4-chlorophenyl)cyclohexyl)-3-methylbutan-1-amine] |  |  | IC50 ([2]; Human IC50 (nM) hSERT): 2100 nM |
| CC(N)C1(c2ccc(-c3ccco3)cc2)CCCCC1 (centres unmarked) [Compound 22, 1-(1-(4-(furan-2-yl)phenyl)cyclohexyl)ethanamine] |  | 296 |  |
| NCC1(c2ccc(F)c(Cl)c2)CCCCC1 [Compound 32, (1-(3-chloro-4-fluorophenyl)cyclohexyl)-methanamine] | 424 |  |  |
| NCC1(c2ccc(Cl)c(Cl)c2)CC=CCC1 (centres unmarked) [Compound 71] |  |  | IC50 ([1]; Human IC50 (nM) hDAT): 123 nM |
| CNCC1(c2cccc(C(F)(F)F)c2)CCCCC1 [Compound 104, N-methyl-1-(1-(3-(trifluoromethyl)phenyl)-cyclohexyl)methanamine] |  |  | IC50 ([2]; Human IC50 (nM) hSERT, recombinant human serotonin transporter (SERT)): 9490 nM |
| CNCC1(c2ccc3ccccc3c2)CCC(O)CC1 (centres unmarked) [Compound 227, 4-((methylamino)methyl)-4-(naphthalen-2-yl)cyclohexanol] | 5780 |  |  |
| CNCC1(c2ccc3ccccc3c2)CCC(F)CC1 (centres unmarked) [Compound 232, 1-(4-fluoro-1-(naphthalen-2-yl)cyclohexyl)-N-methylmethanamine] | 25 |  |  |
| CNCC1(c2ccc3ccccc3c2)CCC(F)CC1 (centres unmarked) [Compound 236, 1-(4-fluoro-1-(naphthalen-2-yl)cyclohexyl)-N-methylmethanamine] | 444 |  |  |
| CNCC1(c2ccc(OC(F)(F)F)cc2)CCC(C)(O)CC1 (centres unmarked) [Compound 247, 1-methyl-4-((methylamino)methyl)-4-(4-(trifluoromethoxy)phenyl)cyclohexanol] |  | 707 |  |
| CN(C)CC1(c2ccc(OC(F)(F)F)cc2)CCC(O)CC1 (centres unmarked) [Compound 250, 4-((dimethylamino)methyl)-4-(4-(trifluoromethoxy)phenyl)cyclohexanol] |  | 47 |  |
| NCC1(c2ccc(Cl)c(Cl)c2)CCC(F)CC1 (centres unmarked) [Compound 253, (1-(3,4-dichlorophenyl)-4-fluorocyclohexyl)methanamine] | 37 |  |  |
| NCC1(c2ccc(Cl)c(Cl)c2)CCC(F)CC1 (centres unmarked) [Compound 260, (1-(3,4-dichlorophenyl)-4-fluorocyclohexyl)methanamine] | 306 |  |  |
| CNCC1(c2ccc(Cl)c(Cl)c2)CCC(F)(F)CC1 [Compound 268, 1-(1-(3,4-dichlorophenyl)-4,4-difluorocyclohexyl)-N-methylmethanamine] |  | 704 |  |
| CC1(O)CCC(CN)(c2ccc(Cl)c(Cl)c2)CC1 (centres unmarked) [Compound 272, 4-(aminomethyl)-4-(3,4-dichlorophenyl)-1-methylcyclohexanol] |  | > 10000 |  |
| CC1(O)CCC(CN)(c2ccc(Cl)c(Cl)c2)CC1 (centres unmarked) [Compound 275, 4-(aminomethyl)-4-(3,4-dichlorophenyl)-1-methylcyclohexanol] |  | 1190 |  |
| CCC1(O)CCC(CNC)(c2ccc(Cl)c(Cl)c2)CC1 (centres unmarked) [Compound 279, 4-(3,4-dichlorophenyl)-1-ethyl-4-((methylamino)methyl)cyclohexanol] | 1450 |  |  |
| CCC1(O)CCC(CNC)(c2ccc(Cl)c(Cl)c2)CC1 (centres unmarked) [Compound 282, 4-(3,4-dichlorophenyl)-1-ethyl-4-((methylamino)methyl)cyclohexanol] | 186 |  |  |
| NC[C@]1(c2ccc(Cl)c(Cl)c2)CC[C@H](O)CC1 [Compound 299, (1s,4s)-4-(aminomethyl)-4-(3,4-dichlorophenyl)cyclohexanol] | 720 |  |  |
